Assay results from ChEMBL document CHEMBL1128348, “Potent non-peptide fibrinogen receptor antagonists which present an alternative pharmacophore” (J Med Chem, 1995).

Assays:
Homo sapiens = species on record: Homo sapiens; experiment: Antiaggregatory activity against human platelet-rich plasma induced by ADP; assay type: functional, organism-based
[1] = biological target: Integrin alpha-IIb/beta-3 (Homo sapiens, UniProt P05106+P08514); experiment: Inhibition of [3H]-SKF- 107260 binding to purified alphaIIb-beta3 integrin of human platelets
Chain of Integrin alpha-IIb/beta-3 (P05106 27-788 limits assumed): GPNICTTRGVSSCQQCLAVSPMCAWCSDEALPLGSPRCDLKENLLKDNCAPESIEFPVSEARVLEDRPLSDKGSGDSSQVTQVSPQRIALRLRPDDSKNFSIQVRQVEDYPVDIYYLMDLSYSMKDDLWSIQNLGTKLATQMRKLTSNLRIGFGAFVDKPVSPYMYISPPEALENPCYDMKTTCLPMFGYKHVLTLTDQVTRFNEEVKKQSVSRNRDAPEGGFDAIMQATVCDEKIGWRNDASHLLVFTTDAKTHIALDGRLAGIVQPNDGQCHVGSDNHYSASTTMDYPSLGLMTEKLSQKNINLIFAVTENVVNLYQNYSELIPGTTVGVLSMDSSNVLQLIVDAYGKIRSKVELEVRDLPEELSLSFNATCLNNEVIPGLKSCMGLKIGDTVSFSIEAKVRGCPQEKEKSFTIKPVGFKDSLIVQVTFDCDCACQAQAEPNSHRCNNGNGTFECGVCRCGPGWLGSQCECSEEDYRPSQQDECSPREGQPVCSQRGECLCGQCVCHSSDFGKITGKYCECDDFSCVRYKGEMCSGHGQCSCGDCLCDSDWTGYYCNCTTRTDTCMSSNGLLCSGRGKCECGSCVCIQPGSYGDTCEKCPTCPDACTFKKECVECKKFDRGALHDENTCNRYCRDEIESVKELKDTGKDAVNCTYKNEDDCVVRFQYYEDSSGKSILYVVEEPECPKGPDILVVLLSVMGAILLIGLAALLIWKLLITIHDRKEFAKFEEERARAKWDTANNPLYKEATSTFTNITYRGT
Chain of Integrin alpha-IIb/beta-3 (P08514 32-887 limits assumed): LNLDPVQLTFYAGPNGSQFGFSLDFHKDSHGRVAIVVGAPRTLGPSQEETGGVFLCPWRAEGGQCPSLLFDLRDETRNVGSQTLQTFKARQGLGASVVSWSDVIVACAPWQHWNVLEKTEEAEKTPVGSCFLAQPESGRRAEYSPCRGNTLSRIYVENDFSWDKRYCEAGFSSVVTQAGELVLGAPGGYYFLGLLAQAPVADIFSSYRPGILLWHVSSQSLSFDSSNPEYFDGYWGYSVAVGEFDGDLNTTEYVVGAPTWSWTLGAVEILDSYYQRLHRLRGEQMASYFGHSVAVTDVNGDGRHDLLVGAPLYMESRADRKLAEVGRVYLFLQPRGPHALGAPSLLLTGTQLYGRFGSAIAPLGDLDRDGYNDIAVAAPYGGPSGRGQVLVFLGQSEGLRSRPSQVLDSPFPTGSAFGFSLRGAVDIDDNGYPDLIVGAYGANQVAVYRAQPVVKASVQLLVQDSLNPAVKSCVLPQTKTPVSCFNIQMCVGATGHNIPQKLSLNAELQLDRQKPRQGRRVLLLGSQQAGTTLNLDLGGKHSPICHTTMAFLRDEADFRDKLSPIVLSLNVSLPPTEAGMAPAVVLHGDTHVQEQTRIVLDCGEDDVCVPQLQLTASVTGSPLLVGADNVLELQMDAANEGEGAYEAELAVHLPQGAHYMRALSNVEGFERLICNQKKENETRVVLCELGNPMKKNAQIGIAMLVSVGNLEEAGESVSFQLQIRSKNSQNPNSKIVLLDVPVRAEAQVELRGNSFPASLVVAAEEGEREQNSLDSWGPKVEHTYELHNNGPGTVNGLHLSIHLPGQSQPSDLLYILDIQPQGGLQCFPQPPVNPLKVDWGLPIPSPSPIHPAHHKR
Chain of Integrin alpha-IIb/beta-3 (P08514 891-1039 limits assumed): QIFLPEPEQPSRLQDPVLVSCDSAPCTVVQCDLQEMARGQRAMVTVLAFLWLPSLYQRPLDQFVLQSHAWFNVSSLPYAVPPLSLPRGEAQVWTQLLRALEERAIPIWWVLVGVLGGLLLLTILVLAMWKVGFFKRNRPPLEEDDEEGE

Structure (SMILES): CN1C(=O)c2ccccc2SSc2ccccc2NC(=O)[C@H](CC(=O)O)NC(=O)CNC(=O)[C@@H]1CCCN=C(N)N [SKF-107260]
- IC50 (Homo sapiens): 90 nM

Structure (SMILES): N=C(N)c1ccc(NC(=O)c2ccc3c(c2)CN(CCc2ccccc2)C(=O)C(CC(=O)O)N3)cc1 (configuration not stated)
- Ki [1]: 26 nM
- IC50 (Homo sapiens): 380 nM

Structure (SMILES): N=C(N)c1ccc(NC(=O)c2ccc3c(c2)NC(CC(=O)O)C(=O)N(CCc2ccccc2)C3)cc1 (configuration not stated)
- Ki [1]: 2.3 nM
- IC50 (Homo sapiens): 150 nM

Structure (SMILES): N=C(N)NCCC[C@@H]1NC(=O)[C@@H]2CCCN2C(=O)[C@H]2CCCN2C(=O)CNC(=O)[C@H](CC(=O)O)NC(=O)CNC1=O
- Ki [1]: 1900 nM
- IC50 (Homo sapiens): 5260 nM
